In the NIST ThermoML archive (doi:10.1016/j.tca.2004.11.015):

Test: xn = mol fraction of the nth substance listed
Details: 101.33 kPa, Liquid, Vibrating tube method

NCCO [2-aminoethan-1-ol] + CO
mass density [kg/m3]
Details	318.15 K	323.15 K	328.15 K	333.15 K
x1 = 0.012	–	768.02	763.16	758.24
x1 = 0.031	–	776.31	771.48	766.6
x1 = 0.05	–	784.19	779.4	774.56
x1 = 0.1	–	804.01	799.31	794.56
x1 = 0.15	–	822.17	817.54	812.87
x1 = 0.2002	–	839.11	834.54	829.94
x1 = 0.2501	–	854.48	849.96	845.4
x1 = 0.2974	872.55	868.11	863.65	859.14
x1 = 0.3502	886.63	882.25	877.83	873.37
x1 = 0.4001	898.67	894.33	889.95	885.53
x1 = 0.4427	908.45	904.14	899.79	895.41
x1 = 0.4502	910.28	905.97	901.63	897.26
x1 = 0.5002	920.74	916.46	912.15	907.81
x1 = 0.5501	930.55	926.3	922.03	917.72
x1 = 0.6001	939.84	935.62	931.37	927.1
x1 = 0.6501	948.51	944.31	940.1	935.85
x1 = 0.7005	956.89	952.72	948.53	944.32
x1 = 0.7479	963.92	959.78	955.62	951.43
x1 = 0.8002	971.82	967.71	963.57	959.42
x1 = 0.8502	978.32	974.23	970.12	965.99
x1 = 0.8967	984.55	980.48	976.39	972.29
x1 = 0.9501	990.85	986.81	982.75	–
